One assay concerns PC-3. The assay can be described thus: Antagonist activity at LPA receptor in human PC3 cells assessed as inhibition of LPA-induced cell migration. The class given is functional, cell-based.
In assay [1] the target is Lysophosphatidic acid receptor 2 (Homo sapiens) (UniProt Q9HBW0). Nature of the assay: Antagonist activity at human LPA2 receptor expressed in HEK293 cells assessed as inhibition of LPA-induced AP-TGF-alpha release treated 5 mins before LPA addition measured after 60 mins. The class given is functional, cell-based.
Sequence of Lysophosphatidic acid receptor 2 (Homo sapiens) (Q9HBW0 whole entry): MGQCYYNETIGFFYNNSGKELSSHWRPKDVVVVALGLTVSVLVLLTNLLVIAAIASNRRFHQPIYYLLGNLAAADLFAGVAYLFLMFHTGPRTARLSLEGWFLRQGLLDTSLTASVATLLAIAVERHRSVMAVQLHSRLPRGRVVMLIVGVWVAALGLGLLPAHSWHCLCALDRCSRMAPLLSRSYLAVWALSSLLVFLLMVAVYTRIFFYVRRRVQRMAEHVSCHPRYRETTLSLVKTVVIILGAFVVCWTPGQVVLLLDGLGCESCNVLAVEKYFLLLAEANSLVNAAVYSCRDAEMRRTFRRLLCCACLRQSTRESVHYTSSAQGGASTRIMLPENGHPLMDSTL

From ChEMBL document CHEMBL2169885, “Synthesis and biological evaluation of optically active Ki16425” (Bioorg Med Chem Lett, 2012) come the findings set out here.

The structures appear in SMILES notation. Activity calls are given as the source filed them. The rule behind the calls is not given here.

As to `Cc1noc(-c2ccc(CSCCC(=O)O)cc2)c1NC(=O)O[C@H](C)c1ccccc1Cl`, the inhibition entry (in the assay with PC-3; in assay [1]) was “Active” each time.
As to `Cc1noc(-c2ccc(CSCCC(=O)O)cc2)c1NC(=O)O[C@@H](C)c1ccccc1Cl`, the inhibition result (in the assay on PC-3; in assay [1]) was “Active” each time.
In the case of `Cc1noc(-c2ccc(CSCCC(=O)O)cc2)c1NC(=O)OC(C)c1ccccc1Cl` (racemic), the inhibition entry (with PC-3; in assay [1]) was “Active” each time.
